Measured values published in the NIST ThermoML archive (doi:10.1021/je500512f).

Assay: molar heat capacity at constant pressure
Conditions: Liquid, Twin Calvet

CC(F)F [1,1-difluoroethane]
molar heat capacity at constant pressure [J/K/mol]
Conditions | 1490 kPa | 2070 kPa | 2540 kPa | 2950 kPa | 3440 kPa | 4010 kPa | 4600 kPa | 5030 kPa
305.15 K | 121 | 121.14 | 120.81 | 120.28 | 119.29 | 119.55 | 118.96 | 118.49
310.15 K | 121.8 | 121.53 | 121.07 | 120.81 | 120.08 | 119.75 | 119.35 | 119.09
315.15 K | 123.84 | 123.25 | 122.79 | 122.46 | 121.8 | 121.2 | 120.61 | 120.41
320.15 K | 126.16 | 125.23 | 124.77 | 124.24 | 123.71 | 122.99 | 122.06 | 121.8
325.15 K | 129 | 127.61 | 127.01 | 126.42 | 125.89 | 124.97 | 123.84 | 123.45
330.15 K | – | 130.65 | 129.79 | 129.13 | 128.47 | 127.41 | 126.09 | 125.63
335.15 K | – | 134.21 | 133.22 | 132.36 | 131.44 | 130.18 | 128.8 | 128.27
340.15 K | – | – | 137.25 | 136.06 | 134.94 | 133.49 | 131.9 | 131.31
345.15 K | – | – | 141.88 | 140.36 | 139.04 | 137.32 | 135.34 | 134.61
350.15 K | – | – | – | 146.1 | 144.05 | 141.88 | 139.43 | 138.51
355.15 K | – | – | – | – | 150.66 | 147.56 | 144.45 | 143.2
360.15 K | – | – | – | – | – | 155.02 | 151.06 | 149.14

COC [dimethyl ether]
molar heat capacity at constant pressure [J/K/mol]
Conditions | 1460 kPa | 2030 kPa | 2520 kPa | 2930 kPa | 3540 kPa | 4060 kPa | 4580 kPa | 5020 kPa
305.15 K | 113.19 | 112.82 | 112.13 | 112.36 | 111.99 | 111.53 | 111.26 | 111.02
310.15 K | 113.47 | 112.91 | 112.31 | 112.45 | 111.72 | 111.21 | 111.44 | 111.3
315.15 K | 114.8 | 114.11 | 113.6 | 113.47 | 112.78 | 112.13 | 112.45 | 112.22
320.15 K | 116.23 | 115.45 | 115.03 | 114.89 | 114.02 | 113.37 | 113.56 | 113.28
325.15 K | 117.84 | 116.92 | 116.65 | 116.05 | 115.31 | 114.57 | 114.66 | 114.3
330.15 K | – | 118.86 | 118.49 | 117.75 | 117.01 | 116.05 | 116.05 | 115.59
335.15 K | – | 121.34 | 120.84 | 120.15 | 119.27 | 118.03 | 117.98 | 117.38
340.15 K | – | – | 123.92 | 123.09 | 122.08 | 120.65 | 120.52 | 119.82
345.15 K | – | – | 127.75 | 126.55 | 125.35 | 123.92 | 123.65 | 122.86
350.15 K | – | – | – | 130.65 | 129.13 | 127.75 | 127.19 | 126.27
355.15 K | – | – | – | – | 133.46 | 131.94 | 131.06 | 129.91
360.15 K | – | – | – | – | – | 136.82 | 135.67 | 134.15
365.15 K | – | – | – | – | – | 144.01 | 142.31 | 140.42
